The target in this experiment is Sentrin-specific protease 7 (Homo sapiens) (UniProt Q9BQF6). The experiment is described as follows: SENP7 protease inhibitors, SAR follow-up, biochemical, luminescence, set 2 (AID 588600). The note with it: recombinant SENP7, Z-RLRGG-aminoluciferin, 40 min.

This is an account of results in PubChem BioAssay AID588600 (Sanford-Burnham Center for Chemical Genomics, 2011).

By IC50 is commonly meant the point on the concentration scale where inhibition reaches its midpoint.

Sentrin-specific protease 7 (Homo sapiens), sequence (Q9BQF6 706-1050 limits assumed): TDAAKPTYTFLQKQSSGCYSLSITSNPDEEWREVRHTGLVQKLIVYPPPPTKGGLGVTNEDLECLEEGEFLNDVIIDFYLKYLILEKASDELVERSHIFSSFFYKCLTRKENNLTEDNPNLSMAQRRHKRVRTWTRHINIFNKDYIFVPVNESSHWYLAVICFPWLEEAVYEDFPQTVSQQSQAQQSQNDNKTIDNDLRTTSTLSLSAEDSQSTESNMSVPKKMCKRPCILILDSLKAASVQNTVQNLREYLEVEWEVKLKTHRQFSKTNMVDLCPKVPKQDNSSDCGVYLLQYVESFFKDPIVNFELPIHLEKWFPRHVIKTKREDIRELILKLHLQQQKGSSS

For `COc1ccccc1OCc1nc(-c2ccccc2Cl)no1`, the IC50 was 2080 nM.
On to `CN(C)c1ccc(/C=C/c2noc(-c3ccccc3O)n2)cc1`, for which the IC50 is 1650 nM.
